The target of the test is T1, KCNT1 (KNa1.1, Slack) (Homo sapiens, UniProt Q5JUK3).
T1 construct: expressed in transfected cells; host or cells: HEK-TREX (tetracycline inducible cell line)
T1 sequence (Q5JUK3 1-1230): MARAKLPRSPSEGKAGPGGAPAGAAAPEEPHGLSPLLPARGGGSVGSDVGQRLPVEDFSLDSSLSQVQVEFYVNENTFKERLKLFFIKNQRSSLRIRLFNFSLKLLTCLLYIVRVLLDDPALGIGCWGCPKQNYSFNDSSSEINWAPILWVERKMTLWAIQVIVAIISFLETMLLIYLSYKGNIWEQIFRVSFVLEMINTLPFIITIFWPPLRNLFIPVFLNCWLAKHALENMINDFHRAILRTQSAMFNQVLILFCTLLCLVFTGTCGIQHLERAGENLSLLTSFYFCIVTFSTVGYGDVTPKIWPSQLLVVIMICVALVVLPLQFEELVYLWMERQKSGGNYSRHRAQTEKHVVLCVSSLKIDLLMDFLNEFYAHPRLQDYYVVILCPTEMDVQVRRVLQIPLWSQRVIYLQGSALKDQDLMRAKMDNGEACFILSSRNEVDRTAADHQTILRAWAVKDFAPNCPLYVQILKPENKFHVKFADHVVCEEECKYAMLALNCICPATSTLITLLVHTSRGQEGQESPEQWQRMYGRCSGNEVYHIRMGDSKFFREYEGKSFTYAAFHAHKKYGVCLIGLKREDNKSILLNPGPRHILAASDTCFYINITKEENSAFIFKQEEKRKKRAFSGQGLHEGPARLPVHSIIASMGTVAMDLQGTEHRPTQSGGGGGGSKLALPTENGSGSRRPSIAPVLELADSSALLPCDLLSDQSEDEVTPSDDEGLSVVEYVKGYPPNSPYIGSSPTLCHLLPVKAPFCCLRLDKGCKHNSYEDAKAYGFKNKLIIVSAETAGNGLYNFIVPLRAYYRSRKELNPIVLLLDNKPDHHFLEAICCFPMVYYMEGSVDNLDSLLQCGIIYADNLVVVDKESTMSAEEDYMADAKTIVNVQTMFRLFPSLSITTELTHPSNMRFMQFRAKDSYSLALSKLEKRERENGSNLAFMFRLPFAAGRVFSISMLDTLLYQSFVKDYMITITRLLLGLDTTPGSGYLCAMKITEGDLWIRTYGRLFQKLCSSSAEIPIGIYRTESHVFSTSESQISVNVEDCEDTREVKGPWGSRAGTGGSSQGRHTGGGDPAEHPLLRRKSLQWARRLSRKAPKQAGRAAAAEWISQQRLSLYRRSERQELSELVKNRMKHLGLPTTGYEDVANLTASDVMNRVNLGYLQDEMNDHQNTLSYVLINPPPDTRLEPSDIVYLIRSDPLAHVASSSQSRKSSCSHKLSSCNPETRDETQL
Nature of the test: KCNT1 patch clamp assay (SyncroPatch 384PE, tetracycline inducible HEK-TREX cell line). The format is cell-based. The conditions noted are these: WT KCNT1, HEK-TREX cells, perforated patch, step from -80 mV to 0 mV, room temperature; read-out: WT (KCNT1 inhibition IC50). As for the experimental part:
Inhibition of KCNT1 (KNa1.1, Slack) was evaluated using a tetracycline inducible cell line (HEK-TREX). Currents were recorded using the SyncroPatch 384PE automated, patch clamp system. Pulse generation and data collection were performed with PatchController384 V1.3.0 and DataController384 V1.2.1 (Nanion Technologies). The access resistance and apparent membrane capacitance were estimated using built-in protocols. Current was recorded in perforated patch mode (10 μM escin) from a population of cells. The cells were lifted, triturated, and resuspended at 800,000 cells/ml. The cells were allowed to recover in the cell hotel prior to experimentation. Currents were recorded at room temperature. The external solution contained the following (in mM): NaCl 105, NMDG 40, KCl 4, MgCl2 1, CaCl2 5, and HEPES 10 (pH=7.4, Osmolarity ˜300 mOsm). The extracellular solution was used as the wash, reference, and compound delivery solution. The internal solution contained the following (in mM): NaCl 70, KF 70, KCl 10, EGTA 5, HEPES 5, and Escin 0.01 (pH=7.2, Osmolarity ˜295 mOsm). Escin is made at a 5 mM stock in water, aliquoted, and stored at −20° C. The compound plate was created at 2× concentrated in the extracellular solution. The compound was diluted to 1:2 when added to the recording well. The amount of DMSO in the extracellular solution was held constant at the level used for the highest tested concentration. A holding potential of −80 mV with a 100 ms step to 0 mV was used. Mean current was measured during the step to 0 mV. […] The average mean current from 3 sweeps was calculated and the percent inhibition of each compound was calculated. The percent inhibition as a function of the compound concentration was fit with a Hill equation to derive IC50, slope, minimum parameters, and maximum parameters. If KCNT1 inhibition was less than 50% at the highest tested concentration or if an IC50 could not be calculated, then a percent inhibition was reported in place of the IC50.
In this table, “A” indicates IC50 of less than or equal to 1 μM; “B” indicates inhibition of between 1 μM to 20 μM; and “C” indicates inhibition of greater than or equal to 20 μM.
A general note: Patch clamp records ionic current or voltage across a cell membrane.

As a reminder, the IC50 is the concentration that inhibits the measured activity by half. `Cn1nc(C(F)(F)F)cc1C(=O)NC(C)(C)c1cc(-c2ccnc(C(F)(F)F)c2)nn1C` [Compound 1063, 1-methyl-N-(2-(1-methyl-3-(2-(trifluoromethyl)pyridin-4-yl)-1H-pyrazol-5-yl)propan-2-yl)-3-(trifluoromethyl)-1H-pyrazole-5-carboxamide]: the 50% inhibitory concentration (IC50) was at most 1 µM.

`Cn1nc(C(F)(F)F)cc1C(=O)NC1(c2cc(-c3ccnc(C(F)(F)F)c3)nn2C)CCC1` [Compound 1064, 1-methyl-N-(1-(1-methyl-3-(2-(trifluoromethyl)pyridin-4-yl)-1H-pyrazol-5-yl)cyclobutyl)-3-(trifluoromethyl)-1H-pyrazole-5-carboxamide]: the concentration for half-maximal inhibition (IC50) was at most 1 µM.

Source of the values: patent US20250346576A1, “KCNT1 INHIBITORS COMPRISING A PYRAZOLE CORE AND METHODS OF USE” (PRAXIS PRECISION MEDICINES, INC., priority 2022, published 2025).
